Measurements taken from PMC6000956, “Immunomodulatory activities of pixatimod: emerging nonclinical and clinical data, and its potential utility in combination with PD-1 inhibitors” (Journal for Immunotherapy of Cancer, 2018).
Read-outs that look alike come from different tables or passages of the source.

Columns and labels:
[1] = Plasma exposure in the Phase Ia monotherapy study (PG545102), IV infusion; assay type: in vivo; conditions: human
Method: (§1) A 1 month toxicology study of pixatimod in beagle dogs was performed under OECD Good Laboratory Practice (GLP) to assess the toxicity and toxicokinetic profile of pixatimod with 5 intravenous, short term (approximately 1 h) infusions at three defined dose levels of 2.5, 7.5 and 20 mg/kg weekly over 29 days. Blood samples were collected for toxicokinetic investigation to provide information on the systemic exposure. Parameters monitored included mortality and morbidity, clinical signs, food consumption, body weight and body temperature, ophthalmoscopy and electrocardiographic measurements. Laboratory investigations were performed using haematology (ADVIA 120), coagulation (AMAX Density Plus Coagulometer), clinical chemistry (VITROS 950) and urinalysis (URYXXON 300). At the end of the treatment, all animals were euthanized and subjected to a complete necropsy with selected organs weighed and followed by a detailed histopathology evaluation. Bone marrow smears from the femur and sternum were prepared at necropsy, fixed and stained with May-Grünwald and Giemsa stain for analysis. Blood samples obtained during the Phase Ia monotherapy study (PG545102) were collected weekly and the parameters reported herein were analysed by local hospital laboratories.
Plasma samples were analysed using a LC-MS/MS method as previously described. Pharmacokinetic parameters in animal studies were determined by non-compartmental analyses (NCA) of the mean plasma pixatimod concentration vs time profiles for each dose using the linear trapezoidal method in WinNonlin 5.2.1. For comparison with previous animal studies, exposure data (AUC0-last) in clinical samples were derived using individual subject NCA type exposure parameters from the original plasma concentration data using R (64-bit) Version 3.0.1.

[2] = parameters: method as in PMID 21285983; conditions: tumor-bearing immunocompetent mice; cited from earlier work
beagle dogs = assay: 1 month GLP toxicology study, weekly IV infusion; assay type: in vivo
Method: as §1
In the 4T1.2 model, the percentage tumor growth inhibition was determined according to the following formula: 100 × (1-ΔT/ ΔC) where ΔC and ΔT were calculated by subtracting the mean tumor volume in each group on day 1 of treatment from the mean tumor volume on the day of analysis. Statistical analysis was performed using GraphPad Prism, v 6.0 (GraphPad, La Jolla, CA). An ANOVA analysis was performed followed by Dunnett’s post hoc test to compare the tumor growth in the treated groups to the vehicle control. In the dog toxicology study, the analysis was performed using non-parametric Kruskal-Wallis test. The frequency of clinical observations, and necropsy and histopathology findings, was calculated as applicable. For all statistical analyses, statistically significance differences between control and treatment groups was signified by *P < 0.05, **P < 0.01, ***P < 0.001, ****P < 0.0001 versus vehicle control.

NK cells = assay: NK cell activation in spleen by route of administration; assay type: in vivo, C57BL/6 mice; conditions: 20 mg/kg IP, IV or SC, spleens 2 days later; similar magnitude irrespective of route
Method: To investigate the effect that pixatimod route of administration has upon the activity of this compound, C57BL/6 mice were treated with pixatimod 20 mg/kg intraperitoneally (IP), intravenously (IV) or subcutaneously (SC) and 2 days later, spleens were isolated to study the activation levels of NK cells for surface expression of CD69 or intracellular expression of IFN-γ. Antibodies were CD3ε (145-2C11), NK1.1 (PK136), CD69 (H1.2F3), IFN-γ (XMG1.2), hamster IgG1 isotype (G235–2356) and rat IgG1 isotype (R3–34) were from BD Biosciences (San Jose, CA, USA). Intracellular staining for IFN-γ was performed following ex vivo stimulation of splenocytes for 4 h with 20 ng/ml PMA and 50 ng/ml ionomycin in the presence of 5 μg/mL brefeldin A. Intracellular staining for IFN-γ was performed following treatment with Cytofix/Cytoperm (BD Biosciences) solution. Flow cytometric data were acquired using a FACSCanto flow cytometer (BD Biosciences), and events were analysed using FlowJo Version 9.9.6 software (TreeStar, Ashland, OR, USA).

[3] = High Dose (20 mg/kg), 6 animals examined
[4] = Low Dose (2.5 mg/kg), 6 animals examined
[5] = Mid Dose (7.5 mg/kg), 6 animals examined

For `CC(C)CCC[C@@H](C)[C@H]1CC[C@H]2[C@@H]3CC[C@H]4C[C@@H](O[C@@H]5O[C@H](COS(=O)(=O)O)[C@@H](O[C@H]6O[C@H](COS(=O)(=O)O)[C@@H](O[C@H]7O[C@H](COS(=O)(=O)O)[C@@H](O[C@H]8O[C@H](COS(=O)(=O)O)[C@@H](OS(=O)(=O)O)[C@H](OS(=O)(=O)O)[C@H]8OS(=O)(=O)O)[C@H](OS(=O)(=O)O)[C@H]7OS(=O)(=O)O)[C@H](OS(=O)(=O)O)[C@H]6OS(=O)(=O)O)[C@H](OS(=O)(=O)O)[C@H]5OS(=O)(=O)O)CC[C@]4(C)[C@H]3CC[C@]12C` [pixatimod], the AUC(0-t) ([1]; 25 mg, 25 mg weekly IV, read-out: AUC0-last Week 1) was 465 µg·h/mL, the AUC(0-t) ([1]; 25 mg, 25 mg weekly IV, read-out: AUC0-last Week 4) was 610 µg·h/mL and the AUC(0-t) ([1]; 50 mg, 50 mg weekly IV, read-out: AUC0-last Week 1) was 709 µg·h/mL. For the same compound, the AUC(0-t) ([1]; 50 mg, 50 mg weekly IV, read-out: AUC0-last Week 4) was 1690 µg·h/mL, the AUC(0-t) ([1]; 100 mg, 100 mg weekly IV, read-out: AUC0-last Week 1) was 1210 µg·h/mL and the AUC(0-t) ([1]; 100 mg, 100 mg weekly IV, read-out: AUC0-last Week 4) was 2380 µg·h/mL. For the same compound, the AUC(0-t) ([1]; 150 mg, 150 mg weekly IV, read-out: AUC0-last Week 1) was 1440 µg·h/mL, the AUC(0-t) ([1]; 150 mg, 150 mg weekly IV, read-out: AUC0-last Week 4) was 2780 µg·h/mL and the “exposure (AUC) required to achieve efficacy as a monotherapy” value [2] was 687 µg·h/mL. For the same compound, the mortality (beagle dogs; 2.5, 7.5 and 20 mg/kg weekly IV over 29 days) was “no mortality”, the “Kidney: Cell infiltrate, mixed, perivascular, animals affected” value (shortened to “Kidney: Cell infiltrate … animals affected”) (beagle dogs; [3]) was 6 and the “Kidney: Cell infiltrate, mixed, perivascular, mild” value (beagle dogs; [3]) was 4. For the same compound, the “Kidney: Cell infiltrate, mixed, perivascular, minimal” value (“Kidney: Cell infiltrate … minimal” below) (beagle dogs; [3]) was 1, the “Kidney: Cell infiltrate, mixed, perivascular, moderate” value (beagle dogs; [3]) was 1 and the “Kidney: Dilatation tubular, animals affected” value (beagle dogs; [3]) was 6. For the same compound, the “Kidney: Dilatation tubular, by grade (minimal or mild, not resolvable)” value (beagle dogs; [3]) was 6, the “Kidney: Sclerosis glomerular, animals affected” value (beagle dogs; [3]) was 3 and the “Kidney: Sclerosis glomerular, mild” value (beagle dogs; [3]) was 1. For the same compound, the “Kidney: Sclerosis glomerular, minimal” value (beagle dogs; [3]) was 2, the “Kidney: Vacuolation glomerular, animals affected” value (beagle dogs; [3]) was 4 and the “Kidney: Vacuolation glomerular, mild” value (beagle dogs; [3]) was 4. The “Liver: Cell infiltrate, mixed, diffuse, animals affected” value (“Liver … diffuse, animals affected” for short) (beagle dogs; [3]) was 2, the “Liver: Cell infiltrate, mixed, diffuse, mild” value (beagle dogs; [3]) was 2 and the “Liver: Cell infiltrate, mononuclear, multifocal, animals affected” value (“Liver: Cell infiltrate, mononuclear” below) (beagle dogs; [3]) was 0. The “Liver: Hypertrophy hepatocellular, animals affected” value (beagle dogs; [3]) was 6, the “Liver: Hypertrophy hepatocellular, mild” value (beagle dogs; [3]) was 5 and the “Liver: Hypertrophy hepatocellular, minimal” value (beagle dogs; [3]) was 1. The “Liver: Hypertrophy, Kupffer cells, animals affected” value (beagle dogs; [3]) was 6, the “Liver: Hypertrophy, Kupffer cells, mild” value (beagle dogs; [3]) was 4 and the “Liver: Hypertrophy, Kupffer cells, minimal” value (beagle dogs; [3]) was 2. The “Spleen: Cell infiltrate, mixed cellular, diffuse (minimal), animals affected” value (shortened to “Spleen: Cell infiltrate, mixed cellular”) (beagle dogs; [3]) was 4, the “Thymus: Lymphoid atrophy, animals affected” value (beagle dogs; [3]) was 2 and the “Thymus: Lymphoid atrophy, mild” value (beagle dogs; [3]) was 1. For the same compound, the “Thymus: Lymphoid atrophy, minimal” value (beagle dogs; [3]) was 1, the “Kidney: Cell infiltrate … animals affected” value (beagle dogs; [4]) was 1 and the “Kidney: Cell infiltrate … minimal” value (beagle dogs; [4]) was 1. For the same compound, the “Kidney: Dilatation tubular, animals affected” value (beagle dogs; [4]) was 4, the “Kidney: Dilatation tubular, minimal” value (beagle dogs; [4]) was 4 and the “Kidney: Sclerosis glomerular, animals affected” value (beagle dogs; [4]) was 0. For the same compound, the “Kidney: Vacuolation glomerular, animals affected” value (beagle dogs; [4]) was 0, the “Liver … diffuse, animals affected” value (beagle dogs; [4]) was 0 and the “Liver: Cell infiltrate, mononuclear” value (beagle dogs; [4]) was 0. For the same compound, the “Liver: Hypertrophy hepatocellular, animals affected” value (beagle dogs; [4]) was 5, the “Liver: Hypertrophy hepatocellular, mild” value (beagle dogs; [4]) was 3 and the “Liver: Hypertrophy hepatocellular, minimal” value (beagle dogs; [4]) was 2. The “Liver: Hypertrophy, Kupffer cells, animals affected” value (beagle dogs; [4]) was 2, the “Liver: Hypertrophy, Kupffer cells, mild” value (beagle dogs; [4]) was 1 and the “Liver: Hypertrophy, Kupffer cells, minimal” value (beagle dogs; [4]) was 1. The “Spleen: Cell infiltrate, mixed cellular” value (beagle dogs; [4]) was 0, the “Kidney: Cell infiltrate … animals affected” value (beagle dogs; [5]) was 5 and the “Kidney: Cell infiltrate, mixed, perivascular, mild” value (beagle dogs; [5]) was 1. For the same compound, the “Kidney: Cell infiltrate … minimal” value (beagle dogs; [5]) was 4, the “Kidney: Dilatation tubular, animals affected” value (beagle dogs; [5]) was 6 and the “Kidney: Dilatation tubular, mild” value (beagle dogs; [5]) was 1. The “Kidney: Dilatation tubular, minimal” value (beagle dogs; [5]) was 5, the “Kidney: Sclerosis glomerular, animals affected” value (beagle dogs; [5]) was 0 and the “Kidney: Vacuolation glomerular, animals affected” value (beagle dogs; [5]) was 0. The “Liver … diffuse, animals affected” value (beagle dogs; [5]) was 0, the “Liver: Cell infiltrate, mononuclear” value (beagle dogs; [5]) was 0 and the “Liver: Hypertrophy hepatocellular, animals affected” value (beagle dogs; [5]) was 6. For the same compound, the “Liver: Hypertrophy hepatocellular, mild” value (beagle dogs; [5]) was 5, the “Liver: Hypertrophy hepatocellular, minimal” value (beagle dogs; [5]) was 1 and the “Liver: Hypertrophy, Kupffer cells, animals affected” value (beagle dogs; [5]) was 6. For the same compound, the “Liver: Hypertrophy, Kupffer cells, mild” value (beagle dogs; [5]) was 2, the “Liver: Hypertrophy, Kupffer cells, minimal” value (beagle dogs; [5]) was 4 and the “Spleen: Cell infiltrate, mixed cellular” value (beagle dogs; [5]) was 2. The AST (beagle dogs; after 5 weekly IV doses) was “significant changes”, the “large unstained cells (LUCs)” value (beagle dogs; blood, following exposure) was “significant increases” and the bone marrow smears (beagle dogs; femur and sternum at necropsy) was “No treatment-related changes”. The body temperature (beagle dogs; following the first dose, dissipated upon repeat dosing by day 30) was “significant elevations”, the “absolute WBC counts and main subsets (lymphocytes, neutrophils and monocytes)” value (beagle dogs; weekly IV dosing) was “remained within normal ranges” and the “relative weight of kidneys” value (beagle dogs; weekly IV x5) was “significantly increased”. The “relative weight of liver” value (beagle dogs; weekly IV x5) was “significantly increased”, the spleen weight (beagle dogs; weekly IV x5) was “no effect” and the thymus weights (beagle dogs; weekly IV x5) was “modest but dose-dependent decreases”. The “expression of IFN-γ and CD69 on NK cells” value (NK cells) was “increased”.
